Results taken from PubChem BioAssay AID720513 (Broad Institute, 2013).
Records with an inconclusive call do not appear.

Test system: U2OS PGC1a acetylation AlphaLISA, overnight
Test: PGC1a acetylation increase, cellular AlphaLISA – cell-based, cherry-picked samples, set 6, dose response (AID 720513);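 further: cells made to overexpress flag tagged PGC1a plus GCN5 acetyltransferase by viral infection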

COc1cccc(S(=O)(=O)N(C)C[C@@H]2Oc3cc(C4=CCCC4)ccc3S(=O)(=O)N([C@H](C)CO)C[C@@H]2C)c1 gave an AC40 of 13 µM.

With CCOC(=O)c1sc2nc(C)nc(NCc3ccccc3OC)c2c1C the AC40 was 3.12 µM.

CNC(=O)c1nnsc1S(=O)c1ccc(Cl)cc1 (configuration not stated) was tested, and the AC40 was 1.96 µM.

Cc1cc(C(=O)NNS(=O)(=O)c2ccccc2C(F)(F)F)nn1C(C)(C)C gave an AC40 of 1.04 µM.

CCN(CC)c1ccc(N)cc1S(=O)(=O)Nc1ccccc1OC gave an AC40 of 3 µM.

Molecule COc1ccc(-n2nnnc2CNC(=O)c2ccc3ccccc3c2)cc1 has an AC40 of 6.36 µM.

In the case of O=C(c1ccccc1)c1nn(-c2ccc(Cl)cc2)c(=O)cc1C(F)(F)F, the AC40 is reported as 0.451 µM.

Work on Cc1c(OCc2ccc(C(=O)O)cc2)ccc2c(-c3ccccc3)cc(=O)oc12 yielded an AC40 of 7.28 µM.

In the case of CCOC(=O)CC(S(=O)(=O)c1ccccc1)S(=O)(=O)c1ccccc1, the AC40 is reported as 4.09 µM.

Molecule Cc1noc(C)c1S(=O)(=O)Nc1ccc2c(c1)C(=O)N([C@@H](C)CO)C[C@@H](C)[C@@H](CN(C)Cc1ccc3c(c1)OCO3)OCCCC[C@@H](C)O2 has an AC40 of 3.78 µM.

Molecule CCC(C)(C)n1nnnc1CN(Cc1ccc(Cl)cc1)Cc1ccco1 has an AC40 of 1.39 µM.

For Cn1ncc(Cl)c1C(=O)Nc1sc2c(c1C(N)=O)CCC2, the AC40 was 5.65 µM.

Work on Cc1ccccc1-c1ccc(C2[C@@H]3CN(S(=O)(=O)c4ccccc4C)C[C@H]2N3)cc1 (some centres not stated) yielded an AC40 of 12.9 µM.

In the case of COc1ccc2c(c1)C(C)=CC(C)(C)N2S(=O)(=O)c1ccc(Br)cc1, the AC40 is reported as 2.69 µM.

Molecule CC(=O)Nc1cc(C(=O)OCc2cccc([N+](=O)[O-])c2)ccc1C has an AC40 of 10.4 µM.

Work on COc1ccc([N+](=O)[O-])cc1NCc1ccccc1 yielded an AC40 of 2.95 µM.

Molecule COc1ccc(NC(=O)N2CCN(c3ccc([N+](=O)[O-])cc3)CC2)cc1 has an AC40 of 1.52 µM.

With O=S(=O)(NCc1ccccc1Br)c1ccccc1Br the AC40 was 1.68 µM.

In the case of O=C(CSc1nc2ccccc2c(=O)n1CC1CCCO1)N1CCN(c2ccccc2)CC1 (configuration not stated), the AC40 is reported as 18.6 µM.

Work on CC(C)(C)c1ccc(C(=O)Nc2ccc(C(=O)NCc3cccnc3)cc2)cc1 yielded an AC40 of less than 0.16 µM.

Work on O=C1C=C(c2cc3ccccc3s2)CCC1 yielded an AC40 of 3.77 µM.

O=[N+]([O-])c1ccc(S(=O)(=O)c2cccc(C(F)(F)F)c2)nc1 showed an AC40 of 0.581 µM.

CCOc1ccccc1CN1CCN(C2CCC2)CC1CCO (configuration not stated) was tested, and the AC40 was 6.23 µM.

For CCCCN=C1NC(=O)C(CC(=O)Nc2ccc(Cl)cc2)S1 (configuration not stated), the AC40 was 3.53 µM.

With COc1ccc(NC(=O)c2sccc2SCc2cccc(C(F)(F)F)c2)cc1 the AC40 was 4.18 µM.

Cc1ccc2c(c1)CC1(CN2C)C(=O)NC(=O)N(C(C)C)C1=O (configuration not stated) gave an AC40 of 12 µM.

Cc1ccc(S(=O)(=O)N2CCN(S(=O)(=O)c3ccc(C)cc3)C2c2ccccc2)cc1 was tested, and the AC40 was 2.7 µM.

COc1ccc(S(=O)(=O)N2CCOCC2)cc1NC(=O)CCNC(=O)c1ccc(Cl)cc1 showed an AC40 of 0.772 µM.

CC(=O)Nc1sc2c(c1-c1nc3ccccc3s1)CN(C(C)C)CC2 was tested, and the AC40 was 1.45 µM.

Cc1ccc(-n2cccn2)c(CN2CCCC(C(=O)c3sccc3C)C2)c1 (configuration not stated) was tested, and the AC40 was 9.08 µM.

Molecule COc1ccccc1CN1C[C@@H]2N[C@H](C1)C2c1ccc(-c2ccccc2OC)cc1 (some centres not stated) has an AC40 of 20.8 µM.

In the case of Cc1cc(Nc2cccc(Cl)c2)c2ccccc2n1, the AC40 is reported as 6.94 µM.

Molecule O=C(Nc1ccc(F)cc1)N1CCN(c2nc3ccccc3s2)CC1 has an AC40 of 2.7 µM.

Work on CSc1nc(NCc2ccco2)c2ccccc2n1 yielded an AC40 of 13.6 µM.

Work on O=C(Nc1ccc(-c2noc(-c3cccs3)n2)cc1)c1cccnc1 yielded an AC40 of 1.27 µM.

COc1ccc(S(=O)(=O)NNC(=O)c2csc(-n3nc(C)cc3C(F)(F)F)n2)cc1 gave an AC40 of 7.43 µM.

O=C(C1CCC1)N1CCN(S(=O)(=O)c2ccccc2)CC1 was tested, and the AC40 was 2.24 µM.

For C[C@H]1CN([C@@H](C)CO)C(=O)c2cccc(NS(=O)(=O)c3ccc(F)cc3)c2O[C@H]1CN(C)Cc1ccc(C(F)(F)F)cc1, the AC40 was 1.3 µM.

C[C@@H]1CN([C@H](C)CO)C(=O)c2c(c3ccccc3n2C)-c2ccccc2CO[C@@H]1CN(C)C(=O)Nc1ccccc1C(F)(F)F was tested, and the AC40 was 3.71 µM.

For C[C@H]1CN([C@@H](C)CO)C(=O)c2cccc(NC(=O)c3cnccn3)c2O[C@H]1CN(C)Cc1ccc(C(=O)Nc2ccccc2N)cc1, the AC40 was less than 2.6 µM.

CCC(CC)C(=O)c1c[nH]c(C(=O)NCc2ccccc2)c1 was tested, and the AC40 was 0.689 µM.

With CCOC(=O)C1CCCN(S(=O)(=O)c2ccc3c(c2)NC(=O)CO3)C1 (configuration not stated) the AC40 was 0.439 µM.

Molecule CCOc1ccccc1NC(=O)CSc1cn[nH]n1 has an AC40 of 2.47 µM.

O=C1Nc2cc(S(=O)(=O)N3CCCC3)ccc2N2CCCC12 (configuration not stated) gave an AC40 of 16.6 µM.

In the case of C[C@@H]1CN([C@H](C)CO)C(=O)c2c(c3ccccc3n2C)-c2ccccc2CO[C@@H]1CN(C)C(=O)Nc1cccc(C(F)(F)F)c1, the AC40 is reported as 10.5 µM.

With Cc1c(C(=O)OCC(=O)c2c(N)n(CC(C)C)c(=O)n(C)c2=O)oc2ccccc12 the AC40 was 8.24 µM.

With O=C1OC(Oc2ccc(Br)cc2)(c2ccccc2)c2ccccc21 (configuration not stated) the AC40 was 1.46 µM.

With COc1ccc(S(=O)(=O)N2CC[C@@H]3[C@H](CO)Nc4ccc(-c5ccccc5F)cc4[C@@H]32)cc1 the AC40 was 12.4 µM.

O=C(Nc1cccnc1)c1ccc(Br)s1 gave an AC40 of 0.601 µM.

COc1ccc(OC(=O)N(C)C[C@H]2OCc3ccccc3-c3c(n(C)c4ccccc34)C(=O)N([C@H](C)CO)C[C@H]2C)cc1 was tested, and the AC40 was 6.06 µM.

CSCCC(c1nnnn1-c1c(C)cccc1C)N1CCC2(CC1)C(=O)NCN2c1ccccc1 (configuration not stated) gave an AC40 of 4.64 µM.

With O=C(COc1ccc([N+](=O)[O-])cc1)Nc1ccc(C(=O)NCc2cccnc2)cc1 the AC40 was 0.283 µM.

Cc1coc2cc3oc(=O)c(CCC(=O)NC4CC4)c(C)c3cc12 gave an AC40 of 1.6 µM.

Work on Cc1nnc(NCc2ccccc2)c2ccccc12 yielded an AC40 of 3.04 µM.

COc1ccc(C(c2nnnn2C2CCCCC2)N2CCC3(CC2)C(=O)NCN3c2ccccc2)cc1 (configuration not stated) gave an AC40 of 3.46 µM.

In the case of OC(c1ccccc1)(C1CCCCC1)C(CN1CCOCC1)c1ccccc1 (configuration not stated), the AC40 is reported as 0.634 µM.

In the case of CC1CCCN(Cc2c(O)ccc3c(=O)c(-c4nc5ccccc5s4)c(N)oc23)C1 (configuration not stated), the AC40 is reported as 5.03 µM.

Molecule CC(=O)c1cc(-c2ccccc2)n(CCC(=O)NC2CCCCC2)c1C has an AC40 of 7.4 µM.

In the case of Cc1ccc(/C(N)=N/OC(=O)c2ccco2)cc1, the AC40 is reported as 8.81 µM.

Work on COc1ccc(CN2CCn3ncc(C(=O)Nc4ccccc4)c3C2=O)cc1 yielded an AC40 of 13.4 µM.

With Cc1cc2c(cc1S(=O)(=O)N1CCc3ccccc31)NC(=O)CO2 the AC40 was 2.18 µM.

O=C(COc1ccc(Cl)cc1)NCCCNC(=O)c1cccnc1 was tested, and the AC40 was 1.22 µM.

Work on Cc1ccc2[nH]cc(C(=O)CN3CCN(c4ccccc4F)CC3)c2c1 yielded an AC40 of 2.99 µM.

O=C1NC(=Nc2ccccc2Cl)S/C1=C\c1cccc([N+](=O)[O-])c1O was tested, and the AC40 was 10.6 µM.

For COc1cccc(NC(=O)N(C)C[C@H]2OCc3ccccc3-c3c(n(C)c4ccccc34)C(=O)N([C@@H](C)CO)C[C@@H]2C)c1, the AC40 was 18.3 µM.

Molecule O=C(C(Cc1ccccc1)n1cccc1)N1CCN(c2ccccc2)CC1 (configuration not stated) has an AC40 of 7.54 µM.

Cc1cccc(-c2ccc(C3[C@@H]4CN(C(=O)C5CCCCC5)C[C@H]3N4)cc2)c1 (some centres not stated) showed an AC40 of 6.09 µM.

O=C(NCc1ccccc1)C1Cc2c(-c3ccc(Cl)cc3)ccnc2O1 (configuration not stated) was tested, and the AC40 was 6.16 µM.

O=S1(=O)CCOC[C@H](CC2CCCCC2)N1Cc1ccc(F)cc1 gave an AC40 of 9.18 µM.

In the case of CN1/C(=C\C(=O)c2cccc(S(=O)(=O)N3CCCCC3)c2)C(C)(C)c2ccccc21, the AC40 is reported as 10.9 µM.

COc1ccc(C2N(S(=O)(=O)c3ccccc3)CCN2S(=O)(=O)c2ccc(C)cc2)cc1 (configuration not stated) gave an AC40 of 6.61 µM.

CCn1c(SCC(=O)Nc2ccc(NC(=O)c3ccco3)cc2)nnc1-c1cccs1 showed an AC40 of 1.7 µM.

c1ccc(-c2c(-c3ccccc3)n(Cc3ccco3)c3ncnc(NCCCn4ccnc4)c23)cc1 showed an AC40 of 1.86 µM.

CCOC(=O)c1c(CN2CCN(CC#N)CC2)n(C)c2cc(Br)c(OC)cc12 was tested, and the AC40 was 0.701 µM.

c1ccc(C(c2nnnn2Cc2cccs2)N2CCN(C3CCCC3)CC2)cc1 (configuration not stated) gave an AC40 of 0.483 µM.

Work on O=C(NCc1cccnc1)c1ccc(NC(=O)c2ccc(Br)cc2)cc1 yielded an AC40 of less than 0.16 µM.

COC(=O)c1cc(S(=O)(=O)N2CCN(c3ccc(C(C)=O)cc3)CC2)c[nH]1 gave an AC40 of 4.17 µM.

For COc1ccc(OC)c(NC(=O)CSc2nnc(-c3cccnc3)s2)c1, the AC40 was 0.792 µM.

CC(C)NC(=O)N(C)C[C@H]1OCCCC[C@@H](C)Oc2ccc(NC(=O)Cc3ccccc3)cc2C(=O)N([C@@H](C)CO)C[C@H]1C gave an AC40 of 16.4 µM.

Work on COc1cccc(CN2C[C@@H]3N[C@H](C2)C3c2ccc(-c3ccccc3F)cc2)c1 (some centres not stated) yielded an AC40 of 16.3 µM.

Work on COc1ccc(N(C(=O)c2snc(C(N)=O)c2N)C(C(=O)NC2CCCCC2)c2ccc(C)o2)cc1 (configuration not stated) yielded an AC40 of 5.68 µM.

In the case of COc1ccc(N(C(=O)c2snc(C(N)=O)c2N)C(C(=O)NC2CCCC2)c2ccco2)c(OC)c1 (configuration not stated), the AC40 is reported as 3.85 µM.

For CCOc1ccc2c(c1)C(C)=CC(C)(C)N2S(=O)(=O)c1ccc(C)cc1, the AC40 was 0.781 µM.

c1ccc(N2CCN(c3ccccc3)C2c2ccncc2)cc1 showed an AC40 of 0.244 µM.

CC(=O)c1ccc(N2CCN(c3ccc(S(=O)(=O)NCCCN(C)C)cc3[N+](=O)[O-])CC2)cc1 gave an AC40 of 1.22 µM.

With CSc1nn(-c2ccc(C(=O)OC(C(=O)NC(N)=O)C(C)C)cc2)c(=S)s1 (configuration not stated) the AC40 was 4.42 µM.

Molecule Fc1ccc(-c2nn3c(C4COc5ccccc5O4)nnc3s2)cc1 (configuration not stated) has an AC40 of 1.01 µM.

COc1ccc(CCNC(=O)c2cc(-c3ccco3)on2)cc1OC gave an AC40 of 5.2 µM.

CN1c2ccccc2C2(C)CCCC3=Cc4cccc([N+](=O)[O-])c4OC312 (configuration not stated) showed an AC40 of 0.48 µM.

CNC(=O)c1cccn(Cc2ccc(C(F)(F)F)cc2)c1=O showed an AC40 of 17.5 µM.

With C=C/C=C/[C@@H]1C(=C)CN2[C@H]1[C@H](Cc1ccccc1)OC(=O)[C@@H]2Cc1ccccc1 the AC40 was 11.6 µM.

In the case of CCOC(=O)CNS(=O)(=O)c1cc(-c2nnc(Nc3ccc4c(c3)OCO4)c3ccccc23)ccc1C, the AC40 is reported as 1.29 µM.

With C/C=C(/C)C(=O)O[C@@H]1c2cc(OC)c(OC)c(OC)c2-c2c(cc3c(c2OC)OCO3)C[C@H](C)[C@]1(C)O the AC40 was 1.48 µM.

Work on Cc1cc(C(F)(F)F)n(-c2nc(C(=O)NNS(=O)(=O)c3ccccc3[N+](=O)[O-])cs2)n1 yielded an AC40 of 3.43 µM.

COc1cc(CN2CCCC(CO)(Cc3cccc(Cl)c3)C2)cc2c1OCO2 (configuration not stated) was tested, and the AC40 was 8.62 µM.

For CCOc1ccccc1N(C)C(=O)C1CCN(S(=O)(=O)c2cccc3nonc23)CC1, the AC40 was 3.29 µM.

For Cc1cc(C)c2c(-n3cccc3)c(C(=O)NNS(=O)(=O)c3ccccc3)sc2n1, the AC40 was 4.82 µM.

With COc1ccc(C(c2nnnn2C2CCCC2)N2CCC(C)CC2)c(OC)c1 (configuration not stated) the AC40 was 1.86 µM.

CC(Sc1nc2ccccc2s1)C(=O)NC1CCCc2ccccc21 (configuration not stated) was tested, and the AC40 was 12.4 µM.

With O=C(NCc1csc(-c2cccs2)n1)c1cccc(Cl)c1 the AC40 was 6.13 µM.

Molecule CCOC(=O)C1=CC[C@@H](c2ccccc2)N(S(=O)(=O)c2ccc(C)cc2)[C@H]1c1cccc(OC)c1 has an AC40 of 9.62 µM.

In the case of O=C(Nc1ccc(F)cc1F)N1CCCN(c2ccc([N+](=O)[O-])cn2)CC1, the AC40 is reported as 3.36 µM.
